These results are taken from patent publication US20250215030A1, “STAT MODULATORS AND USES THEREOF” (Recludix Pharma, Inc., priority 2022, published 2025).

Experiment [1] addresses T1, Recombinant STAT3 protein (STAT3(G127-I722)) (Homo sapiens, UniProt P40763).
T1 construct: STAT3(G127-I722)
Description: STAT3 Fluorescence Polarization (FP) Assay. The following applies: STAT3(G127-I722) 25 nM, probe 5-FAM-GpYLPQTV-NH2 2 nM, 45-minute incubation. The class given is binding. Summed up: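 Serially diluted compounds (1% DMSO) were mixed with 2 nM fluorescent phosphotyrosine peptide and 25 nM STAT3 construct G127-I722, pH 7.4, incubated 45 min at room temperature. IC50 values from fitted polarization curves are reported as categories A (≤100 nM), B, C, D (>10 μM).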
Background: Fluorescence polarisation rises when a labelled molecule tumbles more slowly, as on binding a larger partner.

Experiment [2] addresses T2, Recombinant STAT6 protein (STAT6(W123-T658)) (Homo sapiens, UniProt P42226).
T2 construct: STAT6(W123-T658)
T2 sequence (P42226 123-658): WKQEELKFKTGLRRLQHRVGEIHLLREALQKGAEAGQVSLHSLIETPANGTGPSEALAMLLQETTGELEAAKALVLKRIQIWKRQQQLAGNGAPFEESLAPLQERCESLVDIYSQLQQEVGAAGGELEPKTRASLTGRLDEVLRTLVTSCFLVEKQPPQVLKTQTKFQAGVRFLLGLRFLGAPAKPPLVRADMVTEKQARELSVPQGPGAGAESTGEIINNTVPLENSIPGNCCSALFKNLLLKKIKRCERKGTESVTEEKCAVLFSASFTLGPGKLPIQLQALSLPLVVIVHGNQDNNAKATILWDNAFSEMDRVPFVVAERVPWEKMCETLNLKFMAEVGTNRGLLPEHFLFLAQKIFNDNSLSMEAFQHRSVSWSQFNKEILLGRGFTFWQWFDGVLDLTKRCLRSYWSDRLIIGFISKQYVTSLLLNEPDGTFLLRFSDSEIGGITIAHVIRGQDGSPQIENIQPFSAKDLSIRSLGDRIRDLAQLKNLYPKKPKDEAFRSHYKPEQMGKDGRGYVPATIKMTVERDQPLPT
The experiment can be described thus: STAT6 Fluorescence Polarization (FP) Assay. The following applies: STAT6(W123-T658) 250 nM, probe 5-FAM-ApYKPFQDLI-NH2 2 nM, 45-minute incubation. The class given is binding. The method in brief:
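Competitive displacement of a fluorescent phosphotyrosine peptide (2 nM) from recombinant STAT6 W123-T658 (250 nM), 45 min at room temperature in 10 mM HEPES pH 7.4, 50 mM NaCl, 2 mM DTT. mP fitted against log compound for IC50, grouped A (≤300 nM) to D (>30 μM).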

T1 sequence (P40763 127-722, species assumed): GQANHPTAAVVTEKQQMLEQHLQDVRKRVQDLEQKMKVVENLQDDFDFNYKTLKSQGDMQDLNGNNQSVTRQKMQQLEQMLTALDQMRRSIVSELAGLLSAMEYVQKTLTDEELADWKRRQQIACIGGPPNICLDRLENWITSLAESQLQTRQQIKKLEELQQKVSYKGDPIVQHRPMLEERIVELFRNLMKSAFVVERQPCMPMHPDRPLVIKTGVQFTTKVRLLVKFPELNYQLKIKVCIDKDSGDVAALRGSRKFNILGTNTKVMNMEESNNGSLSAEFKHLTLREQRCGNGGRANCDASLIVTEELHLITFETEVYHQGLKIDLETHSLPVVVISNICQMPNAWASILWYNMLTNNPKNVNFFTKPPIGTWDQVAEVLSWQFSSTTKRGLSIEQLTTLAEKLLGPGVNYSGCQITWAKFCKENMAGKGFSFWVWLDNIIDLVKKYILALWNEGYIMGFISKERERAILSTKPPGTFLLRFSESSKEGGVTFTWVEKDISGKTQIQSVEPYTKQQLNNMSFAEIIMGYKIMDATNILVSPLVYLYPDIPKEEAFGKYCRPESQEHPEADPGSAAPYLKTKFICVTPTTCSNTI

As usually defined, the IC50 is the point on the concentration scale where inhibition reaches its midpoint. Take `Cc1ccncc1C1CN(C(=O)[C@@H]2CC[C@@H]3C[C@@H]4C[C@@H]4C[C@H](NC(=O)c4cc5cc(C(F)(F)P(=O)(O)O)ccc5s4)C(=O)N32)C1` [Compound 56, (difluoro(2-(((3S,6S,7aR,8aS,9aR)-3-(3-(4-methylpyridin-3-yl)azetidine-1-carbonyl)-5-oxodecahydro-1H-cyclopropa[d]pyrrolo[1,2-a]azocin-6-yl)carbamoyl)benzo[b]thiophen-5-yl)methyl)phosphonic acid]: the IC50 is less than 0.1 µM in experiment [1] and 0.3 to 3 µM in experiment [2].

Regarding `C[C@]12C[C@H]3CC[C@@H](C(=O)N4CC(c5cccnc5)C4)N3C(=O)[C@@H](NC(=O)c3cc4cc(CP(=O)(O)O)ccc4s3)C[C@H]1C2` [Example 238, ((2-(((3S,6S,7aR,8aS,9aR)-8a-methyl-5-oxo-3-(3-(pyridin-3-yl)azetidine-1-carbonyl)decahydro-1H-cyclopropa[d]pyrrolo[1,2-a]azocin-6-yl)carbamoyl)benzo[b]thiophen-5-yl)methyl)phosphonic acid], the IC50 in experiment [1] is 0.1 to 1 µM; in experiment [2] it was greater than 30 µM.

Consider `O=C(N[C@H]1C[C@H]2C[C@H]2C[C@H]2CC[C@@H](C(=O)NC3CN(C(=O)CCC(F)(F)F)C3)N2C1=O)c1cc2cc(C(F)(F)P(=O)(O)O)ccc2s1` [Compound 63, (difluoro(2-(((3S,6S,7aR,8aS,9aR)-5-oxo-3-((1-(4,4,4-trifluorobutanoyl)azetidin-3-yl)carbamoyl)decahydro-1H-cyclopropa[d]pyrrolo[1,2-a]azocin-6-yl)carbamoyl)benzo[b]thiophen-5-yl)methyl)phosphonic acid], for which the figures for the IC50 in experiment [1] and in experiment [2] were less than 0.1 µM and 3 to 30 µM, respectively.

With `CCc1ccncc1C1CN(C(=O)[C@@H]2CC[C@@H]3C[C@H]4C[C@H]4C[C@H](NC(=O)c4cc5cc(C(F)P(=O)(O)O)ccc5s4)C(=O)N32)C1` (stereo partly drawn) [Example 266, ((2-(((3S,6S,7aS,8aR,9aR)-3-(3-(4-ethylpyridin-3-yl)azetidine-1-carbonyl)-5-oxodecahydro-1H-cyclopropa[d]pyrrolo[1,2-a]azocin-6-yl)carbamoyl)benzo[b]thiophen-5-yl)fluoromethyl)phosphonic acid], the IC50 in experiment [1] was less than 0.1 µM; in experiment [2], 3 to 30 µM.

Regarding `O=C(N[C@H]1C[C@H]2C[C@H]2C[C@H]2CC[C@@H](C(=O)N[C@H]3CN(c4cccnc4)C[C@H]3F)N2C1=O)c1cc2cc(C(F)(F)P(=O)(O)O)ccc2s1` [Compound 129, (difluoro(2-(((3S,6S,7aR,8aS,9aR)-3-(((3S,4R)-4-fluoro-1-(pyridin-3-yl)pyrrolidin-3-yl)carbamoyl)-5-oxodecahydro-1H-cyclopropa[d]pyrrolo[1,2-a]azocin-6-yl)carbamoyl)benzo[b]thiophen-5-yl)methyl)phosphonic acid], the IC50 in experiment [1] is less than 0.1 µM; in experiment [2], 3 to 30 µM.

As to `O=C(N[C@H]1C[C@H]2C[C@H]2C[C@H]2CC[C@@H](C(=O)N3CC(c4c[nH]cn4)C3)N2C1=O)c1cc2cc(C(F)(F)P(=O)(O)O)ccc2s1` [Compound 54, ((2-(((3S,6S,7aR,8aS,9aR)-3-(3-(1H-imidazol-4-yl)azetidine-1-carbonyl)-5-oxodecahydro-1H-cyclopropa[d]pyrrolo[1,2-a]azocin-6-yl)carbamoyl)benzo[b]thiophen-5-yl)difluoromethyl)phosphonic acid], the IC50 in experiment [1] is less than 0.1 µM; in experiment [2] it was 0.3 to 3 µM.

Consider `O=C(N[C@H]1C[C@@H]2C[C@@H]2C[C@H]2CC[C@@H](C(=O)N3CCC34CCCC4)N2C1=O)c1cc2cc(C(F)P(=O)(O)O)ccc2s1` (stereo partly drawn) [Example 389, (fluoro(2-(((3S,6S,7aS,8aR,9aR)-5-oxo-3-(1-azaspiro[3.4]octane-1-carbonyl)decahydro-1H-cyclopropa[d]pyrrolo[1,2-a]azocin-6-yl)carbamoyl)benzo[b]thiophen-5-yl)methyl)phosphonic acid], for which the IC50 in experiment [1] lay in the range of 1 to 10 µM; in experiment [2], 3 to 30 µM.

For the molecule `O=C(N[C@H]1C[C@@H]2C[C@@H]2C[C@H]2CC[C@@H](C(=O)N3CC(c4ncco4)C3)N2C1=O)c1cc2cc(C(F)P(=O)(O)O)ccc2s1` (stereo partly drawn) [Example 322, (fluoro(2-(((3S,6S,7aS,8aR,9aR)-3-(3-(oxazol-2-yl)azetidine-1-carbonyl)-5-oxodecahydro-1H-cyclopropa[d]pyrrolo[1,2-a]azocin-6-yl)carbamoyl)benzo[b]thiophen-5-yl)methyl)phosphonic acid], the IC50 in experiment [1] was less than 0.1 µM; in experiment [2], 3 to 30 µM.

With `Cc1cccnc1C1CN(C(=O)[C@@H]2CC[C@@H]3C[C@@H]4C[C@@H]4C[C@H](NC(=O)c4cc5cc(C(F)(F)P(=O)(O)O)ccc5s4)C(=O)N32)C1` [Compound 58, (difluoro(2-(((3S,6S,7aR,8aS,9aR)-3-(3-(3-methylpyridin-2-yl)azetidine-1-carbonyl)-5-oxodecahydro-1H-cyclopropa[d]pyrrolo[1,2-a]azocin-6-yl)carbamoyl)benzo[b]thiophen-5-yl)methyl)phosphonic acid], the IC50 in experiment [1] is less than 0.1 µM; in experiment [2], 3 to 30 µM.

`Cc1cccc(C2CN(C(=O)[C@@H]3CC[C@@H]4C[C@@H]5C[C@@H]5C[C@H](NC(=O)c5cc6cc(C(F)(F)P(=O)(O)O)ccc6s5)C(=O)N43)C2)n1` [Compound 60, (difluoro(2-(((3S,6S,7aR,8aS,9aR)-3-(3-(6-methylpyridin-2-yl)azetidine-1-carbonyl)-5-oxodecahydro-1H-cyclopropa[d]pyrrolo[1,2-a]azocin-6-yl)carbamoyl)benzo[b]thiophen-5-yl)methyl)phosphonic acid]: the values for the IC50 in experiment [1] and in experiment [2] were less than 0.1 µM and 0.3 to 3 µM, respectively.

As for `O=C(N[C@H]1C[C@H]2C[C@H]2C[C@H]2CC[C@@H](C(=O)N3CC(c4ncccn4)C3)N2C1=O)c1cc2cc(C(F)P(=O)(O)O)ccc2s1` (stereo partly drawn) [Example 317, (fluoro(2-(((3S,6S,7aR,8aS,9aR)-5-oxo-3-(3-(pyrimidin-2-yl)azetidine-1-carbonyl)decahydro-1H-cyclopropa[d]pyrrolo[1,2-a]azocin-6-yl)carbamoyl)benzo[b]thiophen-5-yl)methyl)phosphonic acid], the results for the IC50 in experiment [1] and in experiment [2] were less than 0.1 µM and 3 to 30 µM, respectively.

In the case of `O=C(N[C@H]1C[C@@H]2C[C@@H]2C[C@H]2CC[C@@H](C(=O)N3CC(c4cccnc4)C3)N2C1=O)c1cc2cc(C(F)(F)P(=O)(O)O)ccc2s1` [Compound 36, (difluoro(2-(((3S,6S,7aS,8aR,9aR)-5-oxo-3-(3-(pyridin-3-yl)azetidine-1-carbonyl)decahydro-1H-cyclopropa[d]pyrrolo[1,2-a]azocin-6-yl)carbamoyl)benzo[b]thiophen-5-yl)methyl)phosphonic acid], the IC50 was less than 0.1 µM in experiment [1] and 0.3 to 3 µM in experiment [2].

As for `C[C@]12CC[C@H](NC(=O)c3cc4cc(C(F)(F)P(=O)(O)O)ccc4s3)C(=O)N3[C@H](CC[C@H]3C(=O)N3CC(c4cccnc4)C3)[C@H]1C2` [Example 234, (difluoro(2-(((3S,6S,8aR,9aS,9bR)-8a-methyl-5-oxo-3-(3-(pyridin-3-yl)azetidine-1-carbonyl)decahydro-1H-cyclopropa[c]pyrrolo[1,2-a]azocin-6-yl)carbamoyl)benzo[b]thiophen-5-yl)methyl)phosphonic acid], the IC50 in experiment [1] is less than 0.1 µM; in experiment [2], 3 to 30 µM.

On to `O=C(N[C@H]1C[C@@H]2C[C@@H]2C[C@H]2CC[C@@H](C(=O)N3CC(C4CCOCC4)C3)N2C1=O)c1cc2cc(C(F)(F)P(=O)(O)O)ccc2s1` [Compound 96, (difluoro(2-(((3S,6S,7aS,8aR,9aR)-5-ox0-3-(3-(tetrahydro-2H-pyran-4-yl)azetidine-1-carbonyl)decahydro-1H-cyclopropa[d]pyrrolo[1,2-a]azocin-6-yl)carbamoyl)benzo[b]thiophen-5-yl)methyl)phosphonic acid], for which the IC50 in experiment [1] lay in the range of 0.1 to 1 µM; in experiment [2], 3 to 30 µM.

For `O=C(N[C@H]1C[C@@H]2C[C@@H]2C[C@H]2CC[C@@H](C(=O)N3CC(Oc4ncccn4)C3)N2C1=O)c1cc2cc(CP(=O)(O)O)ccc2s1` [Example 342, ((2-(((3S,6S,7aS,8aR,9aR)-5-oxo-3-(3-(pyrimidin-2-yloxy)azetidine-1-carbonyl)decahydro-1H-cyclopropa[d]pyrrolo[1,2-a]azocin-6-yl)carbamoyl)benzo[b]thiophen-5-yl)methyl)phosphonic acid], the IC50 in experiment [1] was 1 to 10 µM; in experiment [2], greater than 30 µM.
